# Where “and” joins values, the source holds several entries; their conditions need not be identical. Equal entries are not always repeated.
# What was measured:
# Experiment in all cases: ≥ marks a high value that may be exact or a test limit, other limits are often not marked, values filed in µg/mL are converted to µM
# [1] = system: Escherichia coli 44102
# [2] = system: Staphylococcus aureus 22401
# [3] = system: Vibrio anguillarum C312
# [4] = system: Micrococcus luteus
# [5] = system: Edwardsiella tarda TX1
# [6] = system: Staphylococcus aureus
# [7] = system: Staphylococcus aureus ATCC 25923
# [8] = system: Staphylococcus epidermidis ATCC 12228
# [9] = system: Escherichia coli ATCC 25922
# [10] = system: Salmonella enterica subsp. enterica serovar Typhi DMST 22842
# [11] = system: Pseudomonas aeruginosa ATCC 21630
# [12] = system: Pseudomonas aeruginosa LCCE
# [13] = system: Pseudomonas aeruginosa ATCC 27853
# [14] = system: Salmonella enterica subsp. enterica serovar Typhimurium C77-31
# [15] = system: Pseudomonas aeruginosa ATCC 10419
# [16] = system: Pseudomonas aeruginosa LCCI
# [17] = system: Staphylococcus aureus ATCC 29213
# [18] = system: Pseudomonas aeruginosa ATCC 21625
# [19] = system: Pseudomonas aeruginosa LCGE
# [20] = system: Pseudomonas aeruginosa LC
# [21] = system: Staphylococcus aureus ATCC 43300
# [22] = system: Staphylococcus aureus LAC
# [23] = system: Pseudomonas aeruginosa PAO1
# [24] = system: Klebsiella pneumoniae ATCC 13883
# [25] = system: Listeria monocytogenes ATCC 35152
# [26] = system: Escherichia coli DH5alpha
# [27] = system: Staphylococcus aureus ATCC 33591
# [28] = system: Bacillus subtilis DELTA
# [29] = system: Candida parapsilosis
# [30] = system: Candida albicans ATCC 200955
# [31] = system: Zymomonas mobilis ATCC 10988
# [32] = system: Enterococcus faecium ATCC 700221
# [33] = system: Burkholderia cepacia J2540
# [34] = system: Bacillus anthracis UM23-CL2
# [35] = system: Pseudomonas syringae pv. syringae EPS 94
# [36] = system: Erwinia amylovora PMV 6076
# [37] = system: Xanthomonas campestris pv. Vesicatoria 2133-2
structure (smiles),measurement,setting,value
CC[C@H](C)[C@H](NC(=O)[C@H](CCC(=O)O)NC(=O)[C@H](C)NC(=O)[C@H](Cc1ccccc1)NC(=O)[C@@H](N)CC(N)=O)C(=O)N[C@@H](Cc1ccccc1)C(=O)N[C@@H](C)C(=O)N[C@@H](C)C(=O)N[C@H](C(=O)N[C@@H](CC(N)=O)C(=O)N[C@@H](CCCCN)C(=O)N[C@@H](CC(C)C)C(=O)N[C@H](C(=O)N[C@@H](CCCCN)C(=O)N[C@@H](CCC(N)=O)C(=O)NCC(=O)N[C@H](C(=O)N[C@H](C(=O)N[C@@H](CCCCN)C(=O)NCC(=O)O)C(C)C)C(C)C)[C@@H](C)CC)C(C)C [NFAEIFAAVNKLIKQGVVKG],MIC,[1],25 µM
same,MIC,[2],≥ 50 µM
CC[C@H](C)[C@H](NC(=O)[C@H](Cc1cnc[nH]1)NC(=O)[C@H](CO)NC(=O)[C@@H](N)CCC(N)=O)C(=O)N[C@@H](CO)C(=O)N[C@@H](CC(C)C)C(=O)N[C@H]1CSSC[C@@H](C(=O)N[C@@H](CCCCN)C(=O)N[C@@H](Cc2ccccc2)C(=O)O)NC(=O)[C@@H]2CSSC[C@H](NC(=O)[C@H](Cc3c[nH]c4ccccc34)NC(=O)[C@H](CCCN=C(N)N)NC1=O)C(=O)N[C@H]1CSSC[C@H](NC(=O)CNC(=O)[C@H](CCCCN)NC(=O)[C@H](CC(N)=O)NC(=O)[C@H](C)NC(=O)[C@H](CCCCN)NC(=O)[C@@H]3CSSC[C@H](NC(=O)[C@H](CC(N)=O)NC1=O)C(=O)N3)C(=O)NCC(=O)N[C@@H](Cc1ccccc1)C(=O)N2 [QSHISLCRWCCNCCKANKGCGFCCKF],MIC,[3],5.66 µM
same,MIC,[4],1.41 µM
same,MIC,[5],2.83 µM
same,MIC,[6],2.83 µM
CC(C)[C@H](NC(=O)CNC(=O)[C@@H](N)CC(N)=O)C(=O)N[C@@H](CCC(N)=O)C(=O)N1CCC[C@H]1C(=O)N[C@@H](CCCCN)C(=O)N[C@@H](Cc1ccc(O)cc1)C(=O)N[C@@H](CCCN=C(N)N)C(=O)N[C@@H](Cc1c[nH]c2ccccc12)C(=O)N[C@@H](Cc1c[nH]c2ccccc12)C(=O)N[C@@H](CCCN=C(N)N)C(=O)N[C@@H](Cc1c[nH]c2ccccc12)C(=O)N[C@@H](Cc1c[nH]c2ccccc12)C(=O)N[C@@H](CCCN=C(N)N)C(=O)N[C@@H](CCCN=C(N)N)C(=O)N[C@@H](Cc1c[nH]c2ccccc12)C(=O)N[C@@H](Cc1c[nH]c2ccccc12)C(=O)O [NGVQPKYRWWRWWRRWW],MIC,[7],> 35.7 µM
same,MIC,[8],9.03 µM
same,MIC,[9],18.1 µM
same,MIC,[10],≥ 35.7 µM
CC[C@H](C)[C@H](NC(=O)[C@H](CCCCN)NC(=O)[C@H](CCCCN)NC(=O)[C@H](CC(C)C)NC(=O)[C@H](CCCN=C(N)N)NC(=O)[C@H](CCCCN)NC(=O)[C@H](CCCN=C(N)N)NC(=O)[C@@H](NC(=O)[C@H](CCCCN)NC(=O)[C@H](CCCCN)NC(=O)[C@H](CCCN=C(N)N)NC(=O)[C@H](CC(C)C)NC(=O)[C@H](CCCN=C(N)N)NC(=O)[C@H](CCCN=C(N)N)NC(=O)[C@H](Cc1ccccc1)NC(=O)[C@@H](N)CCCN=C(N)N)[C@@H](C)CC)C(N)=O [RFRRLRKKIRKRLKKI],MIC,[11],≥ 256 µM
same,MIC,[8],32 µM
same,MIC,[12],≥ 256 µM
same,MIC,[13],256 µM
same,MIC,[14],≥ 256 µM
same,MIC,[15],≥ 256 µM
same,MIC,[9],128 µM
same,MIC,[16],≥ 256 µM
same,MIC,[17],256 µM
same,MIC,[18],≥ 256 µM
same,MIC,[19],≥ 256 µM
same,MIC,[20],≥ 64 µM
NC(N)=NCCC[C@H](NC(=O)[C@H](CCCN=C(N)N)NC(=O)[C@H](CCCN=C(N)N)NC(=O)[C@@H](N)CCCN=C(N)N)C(=O)N[C@@H](Cc1c[nH]c2ccccc12)C(=O)N[C@@H](Cc1c[nH]c2ccccc12)C(=O)N[C@@H](Cc1c[nH]c2ccccc12)C(=O)N[C@@H](Cc1c[nH]c2ccccc12)C(=O)O [RRRRWWWW],MIC,[21],31.3 µM
same,MIC,[9],46.1 µM
same,MIC,[22],23.1 µM
same,MIC,[23],15.6 µM
CC(C)C[C@H](NC(=O)[C@@H](NC(=O)[C@H](CCC(N)=O)NC(=O)[C@H](CCCCN)NC(=O)[C@H](Cc1cnc[nH]1)NC(=O)[C@H](CC(C)C)NC(=O)[C@H](C)NC(=O)[C@@H](NC(=O)[C@H](CC(C)C)NC(=O)[C@H](CCCCN)NC(=O)[C@H](CC(C)C)NC(=O)[C@@H](N)CCCCN)C(C)C)C(C)C)C(N)=O [KLKLVALHKQVL],MIC,[7],7.2 µM
same,MIC,[24],18 µM
same,MIC,[13],18 µM
same,MIC,[9],10.8 µM
same,MIC,[25],14.4 µM
CC[C@H](C)[C@H](NC(=O)[C@H](Cc1ccccc1)NC(=O)[C@H](CCCCN)NC(=O)[C@H](CC(C)C)NC(=O)[C@H](CC(C)C)NC(=O)CN)C(=O)N[C@@H](CCCCN)C(=O)N[C@@H](CCCCN)C(=O)N[C@@H](CC(C)C)C(=O)N[C@@H](CC(C)C)C(N)=O [GLLKFIKKLL],MIC,[26],≥ 256 µM
same,MIC,[27],9.5 µM
same,MIC,[13],28.4 µM
same,MIC,[9],9.5 µM
same,MIC,[28],25.6 µM
same,MIC,[29],≥ 34.1 µM
same,MIC,[30],9.5 µM
same,MIC,[31],5.97 µM
same,MIC,[32],9.5 µM
CC[C@H](C)[C@H](NC(=O)[C@H](CCCCN)NC(=O)[C@H](CCCCN)NC(=O)[C@H](Cc1ccccc1)NC(=O)[C@H](CC(C)C)NC(=O)[C@H](CCCCN)NC(=O)[C@H](Cc1c[nH]c2ccccc12)NC(=O)[C@@H](N)CCCCN)C(=O)N[C@@H](C)C(=O)N[C@@H](CCCCN)C(=O)N[C@@H](CCCCN)C(=O)N[C@@H](Cc1ccccc1)C(=O)N[C@@H](C)C(=O)N[C@@H](CCCCN)C(=O)N[C@@H](C)C(=O)N[C@@H](Cc1ccccc1)C(=O)N[C@H](C(=O)N[C@@H](C)C(=O)N[C@@H](CCC(=O)O)C(=O)N[C@H](C(=O)N[C@@H](CCSC)C(=O)O)[C@@H](C)CC)C(C)C [KWKLFKKIAKKFAKAFVAEIM],MIC,[33],12.4 µM
same,MIC,[34],24.7 µM and ≥ 49.5 µM
CC[C@H](C)[C@H](NC(=O)[C@H](CCCCN)NC(=O)[C@H](CCCCN)NC(=O)[C@H](Cc1ccccc1)NC(=O)[C@H](CC(C)C)NC(=O)[C@H](CCCCN)NC(=O)[C@@H](N)CCCCN)C(=O)N[C@@H](CC(C)C)C(=O)N[C@@H](CCCCN)C(=O)N[C@@H](Cc1ccc(O)cc1)C(=O)N[C@@H](CC(C)C)C(=O)N[C@@H](C)C(=O)NCC(=O)N1CCC[C@H]1C(=O)N[C@@H](C)C(=O)O [KKLFKKILKYLAGPA],MIC,[35],14.1 µM
same,MIC,[36],14.1 µM
same,MIC,[37],3.54 µM
